The results in this text go back to the supplement of paper PMC4649846.

For assay [1], the system named is MDA-MB-231. As to conditions: incubation time: 72 h. The method in brief:
(§1)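 MDA-MB-231 cells were transfected with siRNA against BRCA1 or with non-targeting control siRNA, and a day later were seeded at 4000 cells per well into 384-well plates containing compounds at 5 concentrations. Plates were kept for 72 h at 37 °C and 5% CO2, after which viability was measured by CellTiter-Blue fluorescence. Logistic dose–response fits in Dotmatics Studies gave the IC50 and the drug sensitivity score, the latter being curve area relative to a reference area and normalised by log of top response.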

In assay [2] the test system is MDA-MB-231. Briefly: drug sensitivity score (DSS); higher = more sensitive; extreme values may be limits of the assay. The following applies: incubation time: 72 h. In outline:
as §1

[3] abbreviates: siRNA: siControl (non-targeting).

As for `Cn1nnc2c(C(N)=O)ncn2c1=O` [Temozolomide], the “IC50 of cell viability” value in the assay with MDA-MB-231 [1] (siRNA: siBRCA1) and in the assay with MDA-MB-231 [1] (setting [3]) was more than 4170 nM throughout. For the same compound, the drug sensitivity score in the assay with MDA-MB-231 [2] (siRNA: siBRCA1) and with MDA-MB-231 [2] (setting [3]) was 0 each time.

On to `CO[C@H]1C[C@@H]2CC[C@@H](C)[C@@](O)(O2)C(=O)C(=O)N2CCCC[C@H]2C(=O)O[C@H]([C@H](C)C[C@@H]2CC[C@@H](OC(=O)C(C)(CO)CO)[C@H](OC)C2)CC(=O)[C@H](C)/C=C(\C)[C@@H](O)[C@@H](OC)C(=O)[C@H](C)C[C@H](C)/C=C/C=C/C=C/1C` [Temsirolimus], for which the “IC50 of cell viability” value in the assay on MDA-MB-231 [1] (siRNA: siBRCA1) stood at 3.9 nM; in the assay on MDA-MB-231 [1] (setting [3]), 4.02 nM. For the same compound, the drug sensitivity score was determined as 14.6 in the assay on MDA-MB-231 [2] (siRNA: siBRCA1) and 14.4 with MDA-MB-231 [2] (setting [3]).

Consider `COc1cc([C@@H]2c3cc4c(cc3[C@@H](O[C@@H]3O[C@@H]5CO[C@@H](c6cccs6)O[C@H]5[C@H](O)[C@H]3O)[C@H]3COC(=O)[C@H]23)OCO4)cc(OC)c1O` [Teniposide], for which the “IC50 of cell viability” value in the assay with MDA-MB-231 [1] (siRNA: siBRCA1) was determined as 2840 nM; in the assay on MDA-MB-231 [1] (setting [3]), 1980 nM. Further, the drug sensitivity score was determined as 5.24 in the assay with MDA-MB-231 [2] (siRNA: siBRCA1) and 7.09 in the assay on MDA-MB-231 [2] (setting [3]).

Turning to `O=C1CCC(N2C(=O)c3ccccc3C2=O)C(=O)N1` (stereo unspecified) [Thalidomide], the “IC50 of cell viability” value with MDA-MB-231 [1] (siRNA: siBRCA1) and with MDA-MB-231 [1] (setting [3]) was more than 4170 nM each time. For the same compound, the drug sensitivity score in the assay with MDA-MB-231 [2] (siRNA: siBRCA1) and with MDA-MB-231 [2] (setting [3]) was 0 each time.

Regarding `Nc1nc2[nH]cnc2c(=S)[nH]1` [Thioguanine], the “IC50 of cell viability” value is 1850 nM in the assay on MDA-MB-231 [1] (siRNA: siBRCA1) and more than 4170 nM with MDA-MB-231 [1] (setting [3]). Besides, the values for the drug sensitivity score in the assay on MDA-MB-231 [2] (siRNA: siBRCA1) and in the assay on MDA-MB-231 [2] (setting [3]) were 3.71 and 0, respectively.

In the case of `S=P(N1CC1)(N1CC1)N1CC1` [Thiotepa], the “IC50 of cell viability” value in the assay on MDA-MB-231 [1] (siRNA: siBRCA1) and in the assay with MDA-MB-231 [1] (setting [3]) was more than 4170 nM each time. The drug sensitivity score with MDA-MB-231 [2] (siRNA: siBRCA1) and in the assay with MDA-MB-231 [2] (setting [3]) was 0 in each case.

For `Cn1cncc1[C@@](N)(c1ccc(Cl)cc1)c1ccc2c(c1)c(-c1cccc(Cl)c1)cc(=O)n2C` [Tipifarnib], the “IC50 of cell viability” value was 79.4 nM in the assay with MDA-MB-231 [1] (siRNA: siBRCA1) and 30.5 nM with MDA-MB-231 [1] (setting [3]). For the same compound, the drug sensitivity score in the assay on MDA-MB-231 [2] (siRNA: siBRCA1) is 12.8; in the assay on MDA-MB-231 [2] (setting [3]), 14.1.

For the compound `COc1cc2nccc(Oc3ccc(NC(=O)Nc4cc(C)on4)c(Cl)c3)c2cc1OC` [Tivozanib], the “IC50 of cell viability” value in the assay on MDA-MB-231 [1] (siRNA: siBRCA1) is more than 4170 nM; with MDA-MB-231 [1] (setting [3]) it was 2460 nM. Further, the drug sensitivity score in the assay with MDA-MB-231 [2] (siRNA: siBRCA1) turned out to be 3.36; in the assay with MDA-MB-231 [2] (setting [3]) it was 2.37.

Take `CC[C@@]1(O)C(=O)OCc2c1cc1n(c2=O)Cc2cc3c(CN(C)C)c(O)ccc3nc2-1` [Topotecan]: the “IC50 of cell viability” value with MDA-MB-231 [1] (siRNA: siBRCA1) is 661 nM; in the assay on MDA-MB-231 [1] (setting [3]), 766 nM. In addition, the drug sensitivity score in the assay on MDA-MB-231 [2] (siRNA: siBRCA1) stood at 10.4; with MDA-MB-231 [2] (setting [3]) it was 10.6.

`CC1=C(/C=C/C(C)=C/C=C/C(C)=C/C(=O)O)C(C)(C)CCC1` [Tretinoin]: the “IC50 of cell viability” value in the assay on MDA-MB-231 [1] (siRNA: siBRCA1) and with MDA-MB-231 [1] (setting [3]) was more than 4170 nM in each case. Besides, the drug sensitivity score turned out to be 0.0479 in the assay with MDA-MB-231 [2] (siRNA: siBRCA1) and 0 in the assay with MDA-MB-231 [2] (setting [3]).

In the case of `C1CN1c1nc(N2CC2)nc(N2CC2)n1` [Triethylenemelamine], the “IC50 of cell viability” value in the assay with MDA-MB-231 [1] (siRNA: siBRCA1) and in the assay with MDA-MB-231 [1] (setting [3]) was more than 4170 nM in each case. Moreover, the drug sensitivity score with MDA-MB-231 [2] (siRNA: siBRCA1) and in the assay on MDA-MB-231 [2] (setting [3]) was 0 in each case.

Regarding `CN[C@@H]1C[C@H]2O[C@@](C)([C@@H]1OC)n1c3ccccc3c3c4c(c5c6ccccc6n2c5c31)C(=O)N[C@H]4O` [UCN-01], the “IC50 of cell viability” value was 66.8 nM in the assay on MDA-MB-231 [1] (siRNA: siBRCA1) and 28.9 nM in the assay on MDA-MB-231 [1] (setting [3]). For the same compound, the drug sensitivity score with MDA-MB-231 [2] (siRNA: siBRCA1) is 23.4; with MDA-MB-231 [2] (setting [3]), 27.8.

Take `Oc1ncc(N(CCCl)CCCl)c(O)n1` [Uracil mustard]: the “IC50 of cell viability” value in the assay on MDA-MB-231 [1] (siRNA: siBRCA1) and in the assay with MDA-MB-231 [1] (setting [3]) was more than 4170 nM throughout. The drug sensitivity score in the assay on MDA-MB-231 [2] (siRNA: siBRCA1) and in the assay on MDA-MB-231 [2] (setting [3]) was 0 in each case.

With `CCCCC(=O)OCC(=O)[C@]1(O)Cc2c(O)c3c(c(O)c2[C@@H](O[C@H]2C[C@H](NC(=O)C(F)(F)F)[C@H](O)[C@H](C)O2)C1)C(=O)c1c(OC)cccc1C3=O` [Valrubicin], the figures for the “IC50 of cell viability” value in the assay on MDA-MB-231 [1] (siRNA: siBRCA1) and in the assay on MDA-MB-231 [1] (setting [3]) were 729 nM and 273 nM, respectively. Also, the drug sensitivity score came to 9.56 in the assay with MDA-MB-231 [2] (siRNA: siBRCA1) and 12.5 in the assay on MDA-MB-231 [2] (setting [3]).

Turning to `COc1cc2/c(=N/c3ccc(Br)cc3F)nc[nH]c2cc1OCC1CCN(C)CC1` [Vandetanib], the entries for the “IC50 of cell viability” value in the assay with MDA-MB-231 [1] (siRNA: siBRCA1) and in the assay with MDA-MB-231 [1] (setting [3]) were 1850 nM and 1860 nM, respectively. For the same compound, the drug sensitivity score with MDA-MB-231 [2] (siRNA: siBRCA1) came to 7.31; in the assay with MDA-MB-231 [2] (setting [3]) it was 7.25.

As to `Clc1ccc(Nc2nnc(Cc3ccncc3)c3ccccc23)cc1` [Vatalanib], the “IC50 of cell viability” value in the assay with MDA-MB-231 [1] (siRNA: siBRCA1) and in the assay with MDA-MB-231 [1] (setting [3]) was more than 4170 nM each time. For the same compound, the drug sensitivity score in the assay with MDA-MB-231 [2] (siRNA: siBRCA1) and in the assay with MDA-MB-231 [2] (setting [3]) was 0 in each case.

Regarding `C[C@]1(c2nc3c(C(N)=O)cccc3[nH]2)CCCN1` [Veliparib], the “IC50 of cell viability” value with MDA-MB-231 [1] (siRNA: siBRCA1) and in the assay with MDA-MB-231 [1] (setting [3]) was more than 4170 nM each time. In addition, the drug sensitivity score in the assay with MDA-MB-231 [2] (siRNA: siBRCA1) and with MDA-MB-231 [2] (setting [3]) was 0 in each case.

Regarding `CC[C@]1(O)C[C@@H]2CN(CCc3c([nH]c4ccccc34)[C@@](C(=O)OC)(c3cc4c(cc3OC)N(C)[C@H]3[C@@](O)(C(=O)OC)[C@H](OC(C)=O)[C@]5(CC)C=CCN6CC[C@]43[C@@H]65)C2)C1` [Vinblastine], the “IC50 of cell viability” value came to 5.72 nM in the assay on MDA-MB-231 [1] (siRNA: siBRCA1) and 5.65 nM in the assay with MDA-MB-231 [1] (setting [3]). Also, the drug sensitivity score was 31.4 with MDA-MB-231 [2] (siRNA: siBRCA1) and 30.9 in the assay with MDA-MB-231 [2] (setting [3]).

On to `CC[C@]1(O)C[C@H]2CN(CCc3c([nH]c4ccccc34)[C@@](C(=O)OC)(c3cc4c(cc3OC)N(C=O)[C@H]3[C@@](O)(C(=O)OC)[C@H](OC(C)=O)[C@]5(CC)C=CCN6CC[C@]43[C@@H]65)C2)C1` [Vincristine], for which the “IC50 of cell viability” value was found to be 5.32 nM in the assay on MDA-MB-231 [1] (siRNA: siBRCA1) and 3.55 nM in the assay with MDA-MB-231 [1] (setting [3]). Besides, the drug sensitivity score was determined as 31.3 in the assay with MDA-MB-231 [2] (siRNA: siBRCA1) and 32.2 in the assay with MDA-MB-231 [2] (setting [3]).

Turning to `CCC1=C[C@@H]2CN(C1)Cc1c([nH]c3ccccc13)[C@@](C(=O)OC)(c1cc3c(cc1OC)N(C)[C@H]1[C@@](O)(C(=O)OC)[C@H](OC(C)=O)[C@]4(CC)C=CCN5CC[C@]31[C@@H]54)C2` [Vinorelbine], the figures for the “IC50 of cell viability” value in the assay on MDA-MB-231 [1] (siRNA: siBRCA1) and in the assay on MDA-MB-231 [1] (setting [3]) were 31 nM and 23.6 nM, respectively. Also, the drug sensitivity score in the assay on MDA-MB-231 [2] (siRNA: siBRCA1) was determined as 23.5; in the assay with MDA-MB-231 [2] (setting [3]), 24.

As for `CS(=O)(=O)c1ccc(C(=O)Nc2ccc(Cl)c(-c3ccccn3)c2)c(Cl)c1` [Vismodegib], the “IC50 of cell viability” value with MDA-MB-231 [1] (siRNA: siBRCA1) and with MDA-MB-231 [1] (setting [3]) was more than 4170 nM in each case. For the same compound, the drug sensitivity score in the assay on MDA-MB-231 [2] (siRNA: siBRCA1) and in the assay with MDA-MB-231 [2] (setting [3]) was 0 in each case.

For `O=C(CCCCCCC(=O)Nc1ccccc1)NO` [Vorinostat], the “IC50 of cell viability” value in the assay with MDA-MB-231 [1] (siRNA: siBRCA1) came to 2040 nM; in the assay on MDA-MB-231 [1] (setting [3]), 1130 nM. For the same compound, the results for the drug sensitivity score in the assay on MDA-MB-231 [2] (siRNA: siBRCA1) and in the assay with MDA-MB-231 [2] (setting [3]) were 6.81 and 9.94, respectively.

In the case of `Oc1nc(-c2ccc(C(F)(F)F)cc2)nc2c1CSCC2` [XAV-939], the “IC50 of cell viability” value in the assay with MDA-MB-231 [1] (siRNA: siBRCA1) was found to be 2820 nM; in the assay on MDA-MB-231 [1] (setting [3]), 230 nM. Further, the drug sensitivity score with MDA-MB-231 [2] (siRNA: siBRCA1) worked out at 1.98; with MDA-MB-231 [2] (setting [3]) it was 4.

Turning to `COCC[n+]1c2c(n(Cc3cnccn3)c1C)C(=O)c1ccccc1C2=O` [YM155], the “IC50 of cell viability” value is 3.75 nM in the assay on MDA-MB-231 [1] (siRNA: siBRCA1) and 3.56 nM with MDA-MB-231 [1] (setting [3]). For the same compound, the values for the drug sensitivity score in the assay with MDA-MB-231 [2] (siRNA: siBRCA1) and in the assay with MDA-MB-231 [2] (setting [3]) were 40.2 and 40.6, respectively.
